Experimental data as given in PubChem BioAssay AID1259407 (Chemical Carcinogenesis Research Information System (CCRIS), 2018).
The source made the active and inactive calls. No rule for the calls is given here.

System: CCRIS mutagenicity, Ames/micronucleus/aberration tests
Assay: CCRIS mutagenicity studies
[1] = Test System: AMES SALMONELLA TYPHIMURIUM, Strain/Indicator: TA98, Metabolic Activation: NONE, Method: PREINCUBATION
[2] = Test System: AMES SALMONELLA TYPHIMURIUM, Strain/Indicator: TA100, Metabolic Activation: NONE, Method: PREINCUBATION
[3] = Test System: AMES SALMONELLA TYPHIMURIUM, Strain/Indicator: TA100, Metabolic Activation: NONE, Method: STANDARD PLATE

For `O=[N+]([O-])c1ccccc1Nc1ccccc1`, the mutagenic call (Test System: AMES SALMONELLA TYPHIMURIUM, Strain/Indicator: TA97, Metabolic Activation: HAMSTER, LIVER, S-9, AROCLOR 1254 (5, 10 OR 30%), Method: PREINCUBATION) was “inactive; negative”, the mutagenic call (Test System: AMES SALMONELLA TYPHIMURIUM, Strain/Indicator: TA97, Metabolic Activation: NONE, Method: PREINCUBATION) was “inactive; negative” and the mutagenic call (Test System: AMES SALMONELLA TYPHIMURIUM, Strain/Indicator: TA97, Metabolic Activation: RAT, LIVER, S-9, AROCLOR 1254 (10%), Method: PREINCUBATION) was “inactive; negative”. The mutagenic call (Test System: AMES SALMONELLA TYPHIMURIUM, Strain/Indicator: TA97, Metabolic Activation: RAT, LIVER, S-9, AROCLOR 1254 (30%), Method: PREINCUBATION) was “inactive; negative”, the mutagenic call (Test System: AMES SALMONELLA TYPHIMURIUM, Strain/Indicator: TA98, Metabolic Activation: HAMSTER, LIVER, S-9, AROCLOR 1254 (10%), Method: PREINCUBATION) was “inactive; negative” and the mutagenic call (Test System: AMES SALMONELLA TYPHIMURIUM, Strain/Indicator: TA98, Metabolic Activation: HAMSTER, LIVER, S-9, AROCLOR 1254 (30%), Method: PREINCUBATION) was “inactive; negative”. The mutagenic call [1] was “inactive; negative”, the mutagenic call (Test System: AMES SALMONELLA TYPHIMURIUM, Strain/Indicator: TA98, Metabolic Activation: RAT, LIVER, S-9, AROCLOR 1254 (10%), Method: PREINCUBATION) was “inactive; negative” and the mutagenic call (Test System: AMES SALMONELLA TYPHIMURIUM, Strain/Indicator: TA98, Metabolic Activation: RAT, LIVER, S-9, AROCLOR 1254 (30%), Method: PREINCUBATION) was “inactive; negative”. For the same compound, the mutagenic call (Test System: AMES SALMONELLA TYPHIMURIUM, Strain/Indicator: TA100, Metabolic Activation: HAMSTER, LIVER, S-9, AROCLOR 1254 (10%), Method: PREINCUBATION) was “inactive; negative”, the mutagenic call (Test System: AMES SALMONELLA TYPHIMURIUM, Strain/Indicator: TA100, Metabolic Activation: HAMSTER, LIVER, S-9, AROCLOR 1254 (30%), Method: PREINCUBATION) was “inactive; negative” and the mutagenic call [2] was “inactive; negative”. For the same compound, the mutagenic call (Test System: AMES SALMONELLA TYPHIMURIUM, Strain/Indicator: TA100, Metabolic Activation: RAT, LIVER, S-9, AROCLOR 1254 (10%), Method: PREINCUBATION) was “inactive; negative”, the mutagenic call (Test System: AMES SALMONELLA TYPHIMURIUM, Strain/Indicator: TA100, Metabolic Activation: RAT, LIVER, S-9, AROCLOR 1254 (30%), Method: PREINCUBATION) was “inactive; negative” and the mutagenic call (Test System: AMES SALMONELLA TYPHIMURIUM, Strain/Indicator: TA1535, Metabolic Activation: HAMSTER, LIVER, S-9, AROCLOR 1254 (10%), Method: PREINCUBATION) was “inactive; negative”. The mutagenic call (Test System: AMES SALMONELLA TYPHIMURIUM, Strain/Indicator: TA1535, Metabolic Activation: HAMSTER, LIVER, S-9, AROCLOR 1254 (30%), Method: PREINCUBATION) was “inactive; negative”, the mutagenic call (Test System: AMES SALMONELLA TYPHIMURIUM, Strain/Indicator: TA1535, Metabolic Activation: NONE, Method: PREINCUBATION) was “inactive; negative” and the mutagenic call (Test System: AMES SALMONELLA TYPHIMURIUM, Strain/Indicator: TA1535, Metabolic Activation: RAT, LIVER, S-9, AROCLOR 1254 (10%), Method: PREINCUBATION) was “inactive; negative”. For the same compound, the mutagenic call (Test System: AMES SALMONELLA TYPHIMURIUM, Strain/Indicator: TA1535, Metabolic Activation: RAT, LIVER, S-9, AROCLOR 1254 (30%), Method: PREINCUBATION) was “inactive; negative”.
`CC(=O)ON(OCc1ccc(Br)cc1)C(=O)c1ccccc1` was tested, and the mutagenic call [3] was “active; positive” and the mutagenic call (Test System: AMES SALMONELLA TYPHIMURIUM, Strain/Indicator: TA100, Metabolic Activation: RAT, S-9, AROCLOR, Method: STANDARD PLATE) was “active; positive”.
In the case of `N[C@@H]1CCCCN1.[Cl][Pt][Cl]`, the mutagenic call [1] was “active; positive”, the mutagenic call [2] was “active; positive” and the mutagenic call (Test System: AMES SALMONELLA TYPHIMURIUM, Strain/Indicator: TA100, Metabolic Activation: RAT, LIVER, S-9, AROCLOR 1254, Method: PREINCUBATION) was “active; positive”.
For `Cc1ccc2c(c1)c(=NC(=O)CCCCl)sn2C(=O)CCCCl`, the mutagenic call (Test System: AMES SALMONELLA TYPHIMURIUM, Strain/Indicator: TA100, Metabolic Activation: S-9, Method: STANDARD PLATE) was “inactive; negative”.
For `C[Si](C)(C)O[Si](C)(C)C`, the mutagenic call (Test System: AMES SALMONELLA TYPHIMURIUM, Strain/Indicator: TA98, Metabolic Activation: NONE, Method: STANDARD PLATE) was “inactive; negative”, the mutagenic call (Test System: AMES SALMONELLA TYPHIMURIUM, Strain/Indicator: TA98, Metabolic Activation: RAT LIVER S-9, AROCLOR 1254, Method: STANDARD PLATE) was “inactive; negative” and the mutagenic call [3] was “inactive; negative”. For the same compound, the mutagenic call (Test System: AMES SALMONELLA TYPHIMURIUM, Strain/Indicator: TA100, Metabolic Activation: RAT LIVER S-9, AROCLOR 1254, Method: STANDARD PLATE) was “inactive; negative”, the mutagenic call (Test System: AMES SALMONELLA TYPHIMURIUM, Strain/Indicator: TA1535, Metabolic Activation: NONE, Method: STANDARD PLATE) was “inactive; negative” and the mutagenic call (Test System: AMES SALMONELLA TYPHIMURIUM, Strain/Indicator: TA1535, Metabolic Activation: RAT LIVER S-9, AROCLOR 1254, Method: STANDARD PLATE) was “inactive; negative”. For the same compound, the mutagenic call (Test System: AMES SALMONELLA TYPHIMURIUM, Strain/Indicator: TA1537, Metabolic Activation: NONE, Method: STANDARD PLATE) was “inactive; negative”, the mutagenic call (Test System: AMES SALMONELLA TYPHIMURIUM, Strain/Indicator: TA1537, Metabolic Activation: RAT LIVER S-9, AROCLOR 1254, Method: STANDARD PLATE) was “inactive; negative” and the mutagenic call (Test System: AMES SALMONELLA TYPHIMURIUM, Strain/Indicator: TA1538, Metabolic Activation: NONE, Method: STANDARD PLATE) was “inactive; negative”. For the same compound, the mutagenic call (Test System: AMES SALMONELLA TYPHIMURIUM, Strain/Indicator: TA1538, Metabolic Activation: RAT LIVER S-9, AROCLOR 1254, Method: STANDARD PLATE) was “inactive; negative”, the mutagenic call (Test System: E. COLI, Strain/Indicator: P3078 POLA, Metabolic Activation: NONE, Method: SPOT TEST) was “inactive; negative” and the mutagenic call (Test System: E. COLI, Strain/Indicator: P3078 POLA, Metabolic Activation: RAT LIVER S-9, AROCLOR 1254, Method: SPOT TEST) was “inactive; negative”. For the same compound, the mutagenic call (Test System: E. COLI, Strain/Indicator: W3110, Metabolic Activation: NONE, Method: SPOT TEST) was “inactive; negative”, the mutagenic call (Test System: E. COLI, Strain/Indicator: W3110, Metabolic Activation: RAT LIVER S-9, AROCLOR 1254, Method: SPOT TEST) was “inactive; negative” and the mutagenic call (Test System: MOUSE LYMPHOMA, Strain/Indicator: L5178Y (TK+/TK-), Metabolic Activation: NONE, Method: SUSPENSION/PLATE) was “inactive; negative”. For the same compound, the mutagenic call (Test System: MOUSE LYMPHOMA, Strain/Indicator: L5178Y (TK+/TK-), Metabolic Activation: RAT, LIVER, S-9, Method: SUSPENSION/PLATE) was “inactive; negative”.
For `CCCNCC(=O)NC(=O)C=[N+]=[N-]`, the mutagenic call (Test System: UDS RODENT CELLS, Strain/Indicator: THY INCORP (NON-S-PHASE), Metabolic Activation: NONE, Method: AUTORADIOGRAPHY) was “active; positive”.
For `CC(N)(CN=[N+]=[N-])C(=O)O` (centres undefined), the mutagenic call (Test System: AMES SALMONELLA TYPHIMURIUM, Strain/Indicator: TA1530, Metabolic Activation: NONE, Method: STANDARD PLATE) was “active; positive”.
For `ONc1ccc(I)cc1`, the mutagenic call (Test System: E. COLI, Strain/Indicator: WP2 UVRA, Metabolic Activation: NONE, Method: FLUCTUATION TEST) was “inactive; negative”.
